According to patent US20260240820A1, “METHOD FOR CONTROLLING MEMBRANE POTENTIAL-DEPENDENT ION CHANNEL THROUGH TYPE I TASTE RECEPTORS (T1RS)” (ION CHAT RESEARCH CORPORATE, priority 2022, published 2026):
pIC50: −log10 of the molar value. Entries after “also recorded” stand apart in the source; their conditions may differ. Where two headings read alike, the source gives them in different places.

Experiments:
[1] = system: VGSC of SH-SY5Y cells (Nav1.7, Nav1.2, Nav1.3); assay: Patch-clamp recording of VGSC current in differentiated SH-SY5Y cells; assay type: cell-based, human; conditions: 5 μM
Source text: Furthermore, the inventors focused on the relationship between taste receptors, particularly the sweet or umami receptors containing the T1R3 subunit, which are widely expressed in the brain and nervous system, including the hippocampus and cortex. They used human neuroblastoma cells (SH-SY5Y) that functionally express Nav1.2, Nav1.3, and Nav1.7 (as reported in non-patent literature 8), as well as HEK cells stably expressing Nav1.5 (with endogenous expression of T1R1, T1R2, and T1R3). They observed the effects of taste stimuli on sodium channel activation. By reducing the expression of T1R1 and T1R3 genes using silencing vectors, they confirmed that the effects on sodium channel currents induced by taste stimuli act through taste receptor GPCRs.
The SH-SY5Y cell culture medium was prepared by mixing DMEM (Sigma-Aldrich) and F-12 (Sigma-Aldrich) in equal proportions. To induce neuronal-like differentiation, the medium contained 1% FBS (BioWest), 5% 40 mM L-Glutamine (Fuji Film), and 1% MEM non-essential amino acids (Wako Pure Chemical Industries). During differentiation, SH-SY5Y cells were cultured for at least 5 days with the addition of 10 μM/ml retinoic acid (Fuji Film). In this document, “SH-SY5Y cells” refer to the SH-SY5Y cell line differentiated into neuronal-like cells.

[2] = when used for treatment of hypercalcemia; cited from earlier work
HEK Nav1.5 cells = assay: GFP-Tubulin / GFP-Actin cytoskeleton observation in HEK Nav1.5 cells; assay type: cell-based, human
Source text: To observe the impact of cinacalcet and Aβ1-42 peptide on microfilament (actin) fiber structures, we labeled cells with GFP-Actin (FIG. 34). […] This experimental approach, using GFP-Tubulin, GFP-Actin, or other fluorescent proteins to label microtubules and microfilaments, can be used to screen compounds that regulate the activity of ion channels and neuronal function-controlling proteins. Additionally, simultaneous labeling of tubulin and actin can be achieved using fluorescent antibodies or phalloidin after cell fixation.

VGSC = assay: Patch-clamp recording of VGSC current, cell type not specified or several cell types (summary statements); assay type: cell-based, human
Nav1.5 = assay: Patch-clamp (voltage clamp) recording of VGSC current in HEK cells stably expressing Nav1.5; conditions: for pIC50: read-out: IC50 (VGSC inhibition)
[3] = system: Nav1.5 in T1R3-silenced HEK cells; assay: VGSC current in HEK Nav1.5 cells with silenced T1R3; assay type: cell-based, human; conditions: for Effect on VGSC current: 20 μM (b565)
Outline: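 VGSC currents were recorded in HEK-Nav1.5 cells with T1R3 knocked down by a miRNA expression vector, stimulated every 8 s. The effect of Aβ25-35 peptide was compared with control HEK-Nav1.5 cells.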

SH-SY5Y cells = assay: Action potentials of differentiated SH-SY5Y cells (current clamp, NanoCharge method); assay type: cell-based, human; conditions: pH6; current clamp
Method: Next, using the current-clamp mode, we applied current stimulation and recorded action potentials from differentiated SH-SY5Y cells (FIG. 5, from the lower to the upper part of the figure, rectangular wave current stimulation was applied. The current strengths were 6, 8, 10, and 12 pA from the bottom). Before the application of Aβ25-35 peptide, action potentials were not induced at stimulation currents of 6 pA and 8 pA, but action potentials were recorded at stronger stimulation currents (10 pA and 12 pA).
By using magnetic conductive nanoparticles as intracellular electrodes for measuring the neuronal action potentials of differentiated SH-SY5Y cells, and combining this with a capacitive potential detection device to measure changes in intracellular potentials, the spontaneous action potentials of these cells were measured. Specifically, 6.25 nM of the T1R3 agonist Aβ25-35 peptide was added to 400 μl of SH-SY5Y cell culture medium, and the spontaneous action potentials before and after the addition of Aβ25-35 peptide were measured to observe the changes.
This membrane potential recording method focuses on the magnetic conductive nanoparticles penetrating the cell membrane, the cover glass on which the cells are seeded, and the electrode placed below the cover glass forming a capacitor. The charge (Q) charged to this capacitor is recorded as the membrane potential in terms of charge rather than voltage changes. Since the charge (Q) is obtained from Q=CV, where C is the capacitance and V is the potential, the charge changes measured here are influenced by the capacitor (C) (FIG. 43).

[4] = system: voltage-dependent potassium channel current of SH-SY5Y cells; assay: Voltage clamp recording of outward potassium current in SH-SY5Y cells; assay type: cell-based, human; conditions: 5 μM
Source text: The inward current represents the transient peak observed immediately after stimulation, while the outward current measures the average value during the last 50 ms of rectangular pulse stimulation.

T1R2/T1R3 = target: T1, T1R2/T1R3 (Homo sapiens, UniProt Q7RTX0+Q8TE23); conditions: Mailliet et al. (2009); read-out: IC50 for inhibition of the sucralose response of the sweet receptor (calcium imaging); cited from earlier work
T1 construct: host or cells: HEK cells overexpressing T1R2, T1R3 and G16-gust44 (Mailliet et al. 2009; Masuda et al. 2012)
T1 sequence (Q8TE23 20-839): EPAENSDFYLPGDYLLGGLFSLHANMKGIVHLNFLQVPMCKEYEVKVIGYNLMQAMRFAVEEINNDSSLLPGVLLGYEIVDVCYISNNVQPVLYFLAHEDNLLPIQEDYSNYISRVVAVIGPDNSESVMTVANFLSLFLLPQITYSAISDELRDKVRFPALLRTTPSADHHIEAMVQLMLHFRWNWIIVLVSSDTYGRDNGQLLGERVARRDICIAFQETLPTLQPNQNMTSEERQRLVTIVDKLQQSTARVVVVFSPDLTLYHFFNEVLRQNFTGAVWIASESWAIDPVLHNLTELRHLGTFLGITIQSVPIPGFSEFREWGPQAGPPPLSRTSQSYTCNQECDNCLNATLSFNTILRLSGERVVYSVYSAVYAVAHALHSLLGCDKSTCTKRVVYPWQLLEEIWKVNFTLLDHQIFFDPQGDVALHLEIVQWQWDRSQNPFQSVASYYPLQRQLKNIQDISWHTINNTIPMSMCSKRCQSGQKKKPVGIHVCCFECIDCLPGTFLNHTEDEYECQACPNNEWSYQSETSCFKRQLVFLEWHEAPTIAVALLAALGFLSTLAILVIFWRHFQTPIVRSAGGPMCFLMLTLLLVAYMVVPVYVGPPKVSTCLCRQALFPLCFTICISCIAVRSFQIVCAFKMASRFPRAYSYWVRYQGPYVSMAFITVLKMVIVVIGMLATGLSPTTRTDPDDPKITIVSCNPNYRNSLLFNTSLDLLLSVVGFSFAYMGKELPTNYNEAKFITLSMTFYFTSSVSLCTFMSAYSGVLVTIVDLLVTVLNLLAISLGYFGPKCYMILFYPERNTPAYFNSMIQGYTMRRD
T1 sequence (Q7RTX0 21-852): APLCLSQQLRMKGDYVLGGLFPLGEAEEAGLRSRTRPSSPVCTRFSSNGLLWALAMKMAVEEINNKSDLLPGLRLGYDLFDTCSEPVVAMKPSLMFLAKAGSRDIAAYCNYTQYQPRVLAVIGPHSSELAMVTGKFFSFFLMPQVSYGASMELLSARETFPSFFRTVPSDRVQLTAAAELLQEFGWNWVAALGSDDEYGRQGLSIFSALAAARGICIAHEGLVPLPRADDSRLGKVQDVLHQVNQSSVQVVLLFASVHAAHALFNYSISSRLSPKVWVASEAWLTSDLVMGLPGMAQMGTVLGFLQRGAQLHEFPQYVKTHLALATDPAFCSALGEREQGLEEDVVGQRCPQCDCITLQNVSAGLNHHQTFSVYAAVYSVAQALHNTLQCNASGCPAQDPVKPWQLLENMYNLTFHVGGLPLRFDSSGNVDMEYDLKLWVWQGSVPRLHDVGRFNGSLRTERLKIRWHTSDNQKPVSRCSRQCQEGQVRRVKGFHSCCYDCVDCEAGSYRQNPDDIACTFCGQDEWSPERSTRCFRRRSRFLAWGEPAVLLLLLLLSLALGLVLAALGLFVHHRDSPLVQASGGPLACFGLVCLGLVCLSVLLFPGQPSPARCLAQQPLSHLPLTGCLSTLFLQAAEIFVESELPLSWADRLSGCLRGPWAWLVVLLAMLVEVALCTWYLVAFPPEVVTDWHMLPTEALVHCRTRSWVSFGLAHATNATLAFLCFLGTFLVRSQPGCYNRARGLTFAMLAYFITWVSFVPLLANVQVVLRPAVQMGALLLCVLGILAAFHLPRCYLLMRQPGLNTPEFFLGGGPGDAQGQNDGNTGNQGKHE

Compound: C[C@@H](NCCCc1cccc(C(F)(F)F)c1)c1cccc2ccccc12 [Cinacalcet]
- Effect on inward VGSC current [1]: inhibited
- Effect on inward VGSC current ([1]; listed as cinacalcet): complete inhibition of both currents
- Plasma concentration [2]: 50 nM
- Microfilament structure (GFP-Actin) (HEK Nav1.5 cells): condensed GFP-Actin structures
- Effects on VGSCs (VGSC): Inhibition of VGSCs
- Effect on VGSC activity (VGSC; 5 μM): completely inhibits VGSC activity
- Inhibitory effect on VGSC when tubulin polymerization is inhibited by Colchicine (VGSC; Colchicine treated cells): still inhibited VGSC currents
- Inhibitory effect on VGSC when actin polymerization is inhibited by Cytochalasin D (VGSC; Cytochalasin D treated cells): inhibited by cytochalasin D treatment
- Required concentration for VGSC inhibition (VGSC; HEK Nav1.5 and SH-SY5Y): 5 µM
- Effects on VGSCs (VGSC; listed as cinacalcet): inhibited human VGSC
- Effect on VGSC (Na+) current under acidic conditions (Nav1.5; 5 μM, pH 6): gradually inhibited; also recorded: exhibited VGSC inhibition
- Effect on VGSC currents (Nav1.5; 20 μM, control HEK Nav1.5 cells): completely inhibits VGSC currents
- Effect on leak (baseline) current (Nav1.5; when VGSC inhibition nearly complete): reduced leak currents
- Effect on VGSC current [3]: no change in VGSC current was observed
- Effect on VGSC current ([3]; listed as cinacalcet): no observable effect
- Effect on VGSC in T1R3-silenced cells ([3]; listed as cinacalcet): no VGSC inhibitory effect was observed; also recorded: T1R3 silencing nullifies ab25-35's
- Effect on VGSC-dependent action potentials under acidic conditions (SH-SY5Y cells): inhibited VGSC-dependent action potentials
- Effect on outward potassium current [4]: inhibited
- Effect on outward potassium current ([4]; listed as cinacalcet): complete inhibition of both currents

Compound: CCOC(=O)C(C)(C)Oc1ccc(Cl)cc1 [Clofibrate]
- pIC50 (Nav1.5; prepulse −80 mV): 3.24
- pIC50 (Nav1.5; prepulse −100 mV): 2.92
- pIC50 (Nav1.5; prepulse −120 mV): 2.98
- pIC50 (T1R2/T1R3): 4.55
